This is an account of results in ChEMBL document CHEMBL1156369, “New acetophenone glucosides isolated from extracts of Helichrysum italicum with antiinflammatory activity” (2001).

Assay [1] has as its system Mus musculus. Kind of assay: Antiinflammatory activity against TPA-induced ear edema in mouse at 0.5 mg/ear topically. The format is functional.
Assay [2] relates to Mus musculus. Description: Antiinflammatory activity against TPA-induced ear edema in mouse assessed per ear drug treated topically. The format is functional.

Structures are written as SMILES. Activity calls are given as the source filed them. No cut-off for these calls is given here.

Consider `C=C(CO[C@@H]1O[C@H](CO)[C@@H](O)[C@H](O)[C@H]1O)[C@@H]1Cc2cc(C(C)=O)ccc2O1`, for which the outcome with Mus musculus [1] was inactive.
For the compound `CC(=O)c1ccc(O[C@@H]2O[C@H](CO)[C@@H](O)[C@H](O)[C@H]2O)c(CC=C(C)C)c1`, the outcome with Mus musculus [1] was inactive.
On the same count and under the same terms, then `Cc1occc(=O)c1O[C@@H]1O[C@H](CO)[C@@H](O)[C@H](O)[C@H]1O`, with “inactive”.
Still for that read-out and setting: for `C=C(CO)[C@@H]1Cc2cc(C(C)=O)ccc2O1` [BITALIN A] the value was 50%; for `CC(=O)c1ccc(O)c(CC=C(C)C)c1`, “inactive”.
As for `C=C(C)C(O)Cc1cc(C(C)=O)ccc1O` (stereo not drawn), the ID50 in the assay on Mus musculus [2] amounted to 0.63 µmol. This compound also yielded an Activity in the assay with Mus musculus [1] of 68%.
In the case of `CC(=O)c1ccc(O[C@@H]2O[C@H](CO)[C@@H](O)[C@H](O)[C@H]2O)c(CCO)c1`, the outcome with Mus musculus [1] was inactive.
